Test results published in patent US20260097091A1, “ADMINISTRATION OF GLUTATHIONE TRISULFIDE TO AMELIORATE PERIPHERAL NEUROPATHY” (The General Hospital Corporation, priority 2022, published 2026).

Assays:
sciatic nerve = assay: transmission electron microscopy of sciatic nerve (unmyelinated neurons, mitochondria); type: in vivo, mice (C57BL/6J); settings: for median area of mitochondria in unmyelinated neuron: sciatic nerve at 4 weeks, control 0.036
Description: Paclitaxel (Sigma-Aldrich) was dissolved with ethanol and cremophor (1:1) and diluted with normal saline (1:4). Peripheral neuropathy was induced in mice by intraperitoneal (i.p.) administration of 4 mg/kg paclitaxel every other day for a total of 4 injections (cumulative dose of 16 mg/kg), according to a previously described protocol. A stable, crystallized form of GSSSG was produced and provided by Kyowa Hakko Bio CO., LTD. GSSSG was pulverized and mixed in 0.5% methylcellulose. To evaluate the therapeutic effects of GSSSG in a model of PIPN, mice were randomly divided into three groups of 6. Mice were treated with: 1) paclitaxel alone; 2) paclitaxel and GSSSG; 3) or vehicle alone (control). Mice in groups 1 and 2 received paclitaxel as described above, while mice in the control group received the same volume of vehicle. The first dose of GSSSG was given within 1 hour after the first PTX injection. Treatment was administered as oral gavage for 28 days with GSSSG at 50 mg/kg/day (group 2) or 0.5% methylcellulose (groups 1 and 3). The dose of GSSSG was determined based on pilot studies. To determine the effect of GSSSG on the development of PIPN, behavioral tests to assess allodynia and hyperalgesia were conducted on all mice on days-1 (baseline), 7, 14, 21, and 28 after paclitaxel administration. Behavioral tests were performed by an investigator who was blinded to the treatment groups, as described in the next section. To evaluate unmyelinated neurons and mitochondria, we examined neurons in sciatic nerve by a transmission electron microscope. Resin-embedded nerve blocks using the same method above were sectioned at 50 nm by an ultramicrotome. Sections were examined with an FEI Morgagni transmission electron microscope. Low (×2200) and high (×11000) magnification of images were captured with an AMT 2K charge-coupled device camera (Advanced Microscopy Techniques, Woburn, MA, USA). Unmyelinated neurons were quantified in 9 low magnified images per group (3 mice per group). The percentage of unmyelinated neurons was calculated by dividing unmyelinated neurons by the total number of neurons. The cross-sectional area of mitochondria (μm^2) in unmyelinated neurons was quantified in 18 to 20 high magnified images per group (3 mice per group). In total, 80 to 100 mitochondrion per group were evaluated. Quantification was conducted by a blinded examiner, and the images were evaluated by a pathologist (A S-R) blinded to the identity of samples.

primary DRG neurons = primary DRG neurons exposed to paclitaxel: Sholl analysis and axonal mitochondria (NF200, MitoTracker); type: cell-based, mice
Description: Primary DRG neurons were prepared from 8 to 10-week old mice as described previously. Briefly, lumber DRG (L1 to L6) were isolated from mice and centrifuged at 176×g (1000 rpm) for 3 minutes. After aspirating the solution, DRG were incubated with Dispase-II Solution (Sigma-Aldrich, Cat No. SCM133) and collagenase type II (Worthington, Cat No. LS004176) for 70 minutes and with 0.25% trypsin for 5 minutes. Subsequently triturated by frame polished glass pipet, neurons were seeded on a 12-well plate with 15 mm coverslip. Cells were incubated in Neurobasal A-medium with 2% B27 supplement (Gibco, Cat No. 10889038), 1% penicillin/streptomycin, 1% Glutamax (Gibco, Cat No. 35050061), and nerve growth factor (Sigma Aldrich, Cat No. N6009) for 24 hours. After 24 hours, they were exposed to 100 nM of paclitaxel with or without 500 nM of GSSSG or PTNSSS for one hour and 50 nM of MitoTracker (Invitrogen, Cat No. M22426) for 30 minutes. After fixing by 4% paraformaldehyde for 10 minutes at room temperature, cells were immersed in 0.2% Triton X-100 in PBS for 7 minutes and washed by PBS. They were incubated with anti-NF200 antibody (1:400, mouse, Sigma-Aldrich, Cat No. N0142) overnight at 4° C. and with the secondary antibody (1:1000, donkey anti-mouse, Abcam, Cat No. ab150105) for one hour at room temperature. After being covered with fluoroshield mounting medium with DAPI (Sigma-Aldrich, Cat No. F6057), 9-10 cells per group (3 mice per group) were imaged on confocal microscopy (ZEISS LSM 800, Carl Zeiss, Thornwood, NY) using a 63× oil immersion objectives lens with 1,024×1,024 pixels image size.
Effects of PTNSSS and GSSSG on axonal integrity were examined in cultured murine primary DRG neurons incubated with paclitaxel. […] Morphology of neurons, the number, length, and branching of neurites, was analyzed by Sholl analysis implemented in ImageJ [30]. Sholl analysis draws equally spaced circles from the soma and counts the number of intersections between neurites and circles to quantify neuronal morphology (FIG. 8C).

primary cortical neurons = assay: Dihydroethidium (DHE) superoxide assay in primary cortical neurons; type: cell-based, mice
Description: Primary cortical neurons were prepared from the cortex of mice on embryonic day 15, as described previously. In brief, the embryo's cortex was isolated in Hanks' balanced salt solution and centrifuged at 176×g (1000 rpm) for 3 minutes. After aspirating the solution, cells were incubated with 0.25% trypsin for 15 minutes and seeded 20,000/well in a 96-well plate coated with the poly-D-lysin (Gibco, Cat No. A3890401). They were incubated in Neurobasal medium (Gibco, Cat No. 21103049) with 2% B27 supplement (Gibco, Cat No. 10889038), 1% penicillin/streptomycin, and 1% Glutamax (Gibco, Cat No. 35050061) until day 11 when they were used for experiments.
To examine whether GSSSG reduces ROS generated by paclitaxel, we conducted Dihydroethidium (DHE) assay (Abcam, Cat No. ab236206) that is sensitive to superoxide. The experiment was done according to protocol provided by the manufacturer. Briefly, primary cortical neurons were incubated in DHE reagent with or without 10 and 30 μM of GSSSG for 30 minutes. After incubating, 100 nM of paclitaxel was administered, and cells were incubated for one hour. Fluorescence of DHE was measured at 490 nm of excitation and 585 nm of emission wavelength.

[1] = 500 nM GSSSG with 100 nM paclitaxel for one hour, vs paclitaxel
[2] = paclitaxel alone, 4 weeks, vs control mice
[3] = 100 nM paclitaxel for one hour, vs control

Structure (SMILES) | mitochondrial swelling in axons of unmyelinated neurons (sciatic nerve; paclitaxel and GSSSG 50 mg/kg/day oral, 4 weeks) | ratio of unmyelinated neurons to total neurons in sciatic nerve (sciatic nerve; paclitaxel and GSSSG 50 mg/kg/day oral, 4 weeks, vs paclitaxel alone) | median area of mitochondria in unmyelinated neuron (sciatic nerve; paclitaxel with GSSSG 50 mg/kg/day oral) | axonal elongation (Sholl analysis) (primary DRG neurons; 500 nM GSSSG with 100 nM paclitaxel for one hour, >160 μm from soma, vs paclitaxel) | number of mitochondria in axons (primary DRG neurons; [1]) | ratio of the total mitochondria length to axonal length (primary DRG neurons; [1]) | paclitaxel-induced increase of intracellular superoxide (DHE) (primary cortical neurons; 10 μM GSSSG co-incubation with 100 nM paclitaxel, vs paclitaxel) | cross-sectional area of mitochondria in unmyelinated sciatic neurons (sciatic nerve; [2]) | ratio of unmyelinated neurons to total neurons in sciatic nerve (sciatic nerve; [2]) | median area of mitochondria in unmyelinated neuron (sciatic nerve; paclitaxel alone) | number of mitochondria in axons (primary DRG neurons; 100 nM paclitaxel for one hour) | ratio of the total mitochondria length to axonal length (primary DRG neurons; 100 nM paclitaxel for one hour) | elongation of axons (Sholl analysis) (primary DRG neurons; [3]) | intracellular levels of superoxide (DHE) (primary cortical neurons; [3])
N[C@@H](CCC(=O)N[C@@H](CSSSC[C@H](NC(=O)CC[C@H](N)C(=O)O)C(=O)NCC(=O)O)C(=O)NCC(=O)O)C(=O)O [GSSSG, glutathione trisulfide] | Prevented Mitochondrial Swelling | larger ratio of unmyelinated neurons | 0.041 μm^2 | restored axonal elongation | prevented paclitaxel-induced decrease | prevented paclitaxel-induced decrease of the ratio of the total mitochondria length to axonal length | prevented the paclitaxel-induced increase of intracellular superoxide | – | – | – | – | – | – | –
CC(=O)O[C@H]1C(=O)[C@@]2(C)[C@H]([C@H](OC(=O)c3ccccc3)[C@]3(O)C[C@H](OC(=O)[C@H](O)[C@@H](NC(=O)c4ccccc4)c4ccccc4)C(C)=C1C3(C)C)[C@]1(OC(C)=O)CO[C@@H]1C[C@@H]2O [paclitaxel, Paclitaxel, reference compound] | – | – | – | – | – | – | – | significantly larger than those in control mice | tended to decrease unmyelinated neurons compared to control mice | 0.057 μm^2 | decreased | decreased the ratio of the total mitochondria length to axonal length | hampered elongation of axons | increased
